For assay [1], the target named is T1, Thioesterase GrsT homolog tycF (Brevibacillus brevis) (UniProt O30412).
T1 sequence (whole entry): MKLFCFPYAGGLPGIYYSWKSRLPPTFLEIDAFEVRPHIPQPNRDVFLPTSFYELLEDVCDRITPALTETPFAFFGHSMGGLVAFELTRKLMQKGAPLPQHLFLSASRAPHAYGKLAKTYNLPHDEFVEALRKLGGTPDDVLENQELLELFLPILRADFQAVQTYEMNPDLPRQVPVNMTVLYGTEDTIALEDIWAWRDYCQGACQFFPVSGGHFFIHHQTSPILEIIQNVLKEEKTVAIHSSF
Description: Apparent kinetic constant (Kcat) for tyrocidine thioesterase amplified from Bacillus brevis (ATCC8185).

Assay [2] has as its target T1, Thioesterase GrsT homolog tycF (Brevibacillus brevis). Kind of assay: Catalytic efficiency (Kcat/Km) was determined. Also on record: unit not given here.

Molecules are shown by their SMILES.

With `CC(=O)NCCSC(=O)[C@H](CC(C)C)NC(=O)[C@H](CCCN)NC(=O)[C@@H](NC(=O)[C@H](Cc1ccc(O)cc1)NC(=O)[C@H](CCC(N)=O)NC(=O)[C@H](CC(N)=O)NC(=O)[C@H](Cc1ccccc1)NC(=O)[C@H](Cc1ccccc1)NC(=O)[C@@H]1CCCN1C(=O)[C@H](N)Cc1ccccc1)C(C)C`, the k cat in assay [1] is 0.105 s⁻¹. In addition, in assay [2], the Ratio was found to be 1.3.

`CC(=O)NCCSC(=O)[C@H](CC(C)C)NC(=O)[C@H](CCCN)NC(=O)[C@@H](NC(=O)[C@H](Cc1ccc(O)cc1)NC(=O)[C@H](CCC(N)=O)NC(=O)[C@H](CC(N)=O)NC(=O)[C@@H](Cc1ccccc1)NC(=O)[C@H](Cc1ccccc1)NC(=O)[C@@H]1CCCN1C(=O)[C@H](N)Cc1ccccc1)C(C)C` (stereo in doubt; form 1): the k cat in assay [1] was determined as 0.733 s⁻¹. Moreover, the Ratio in assay [2] came to 4.78.

As for `CC[C@H](C)[C@H](NC(=O)[C@H](Cc1ccccc1)NC(=O)[C@@H]1CCCN1C(=O)[C@H](N)Cc1ccccc1)C(=O)N[C@@H](CC(N)=O)C(=O)N[C@@H](CCC(N)=O)C(=O)N[C@@H](Cc1ccc(O)cc1)C(=O)N[C@H](C(=O)N[C@@H](CCCN)C(=O)N[C@@H](CC(C)C)C(=O)SCCNC(C)=O)C(C)C`, the k cat in assay [1] turned out to be 0.183 s⁻¹. The Ratio in assay [2] worked out at 0.33.

For the compound `CC(=O)NCCSC(=O)[C@H](CC(C)C)NC(=O)[C@H](CCCN)NC(=O)[C@@H](NC(=O)[C@H](Cc1ccc(O)cc1)NC(=O)[C@H](CCC(N)=O)NC(=O)[C@H](CC(N)=O)NC(=O)[C@H](CCCCN)NC(=O)[C@H](Cc1ccccc1)NC(=O)[C@@H]1CCCN1C(=O)[C@H](N)Cc1ccccc1)C(C)C`, the k cat in assay [1] was determined as 0.233 s⁻¹. The Ratio in assay [2] is 0.92.

On to `CC(=O)NCCSC(=O)[C@H](CC(C)C)NC(=O)[C@H](CCCN)NC(=O)[C@@H](NC(=O)[C@H](Cc1ccc(O)cc1)NC(=O)[C@H](CC(C)C)NC(=O)[C@H](CC(N)=O)NC(=O)[C@@H](Cc1ccccc1)NC(=O)[C@H](Cc1ccccc1)NC(=O)[C@@H]1CCCN1C(=O)[C@H](N)Cc1ccccc1)C(C)C`, for which, in assay [1], the k cat stood at 0.717 s⁻¹. In assay [2], the Ratio was 0.32.

Regarding `CC(=O)NCCSC(=O)[C@H](CC(C)C)NC(=O)[C@H](CCCN)NC(=O)[C@@H](NC(=O)[C@H](Cc1ccc(O)cc1)NC(=O)[C@H](CCC(N)=O)NC(=O)[C@H](CC(N)=O)NC(=O)[C@H](C)NC(=O)[C@H](Cc1ccccc1)NC(=O)[C@@H]1CCCN1C(=O)[C@H](N)Cc1ccccc1)C(C)C`, the k cat in assay [1] came to 0.183 s⁻¹. In addition, the Ratio in assay [2] was found to be 0.6.

`CC(=O)NCCSC(=O)[C@H](CC(C)C)NC(=O)[C@H](CCCN)NC(=O)[C@@H](NC(=O)[C@H](Cc1ccc(O)cc1)NC(=O)[C@H](CCC(N)=O)NC(=O)[C@H](CC(N)=O)NC(=O)[C@@H](NC(=O)[C@H](Cc1ccccc1)NC(=O)[C@@H]1CCCN1C(=O)[C@H](N)Cc1ccccc1)[C@@H](C)O)C(C)C`: the k cat in assay [1] is 0.135 s⁻¹. Moreover, in assay [2], the Ratio came to 0.26.

For `CC(=O)NCCSC(=O)[C@H](CC(C)C)NC(=O)[C@H](CCCN)NC(=O)[C@@H](NC(=O)[C@H](Cc1ccc(O)cc1)NC(=O)[C@H](CC(N)=O)NC(=O)[C@H](CC(N)=O)NC(=O)[C@@H](Cc1ccccc1)NC(=O)[C@H](Cc1ccccc1)NC(=O)[C@@H]1CCCN1C(=O)[C@H](N)Cc1ccccc1)C(C)C`, the k cat in assay [1] was determined as 1.33 s⁻¹. Further, the Ratio in assay [2] came out at 0.72.

Regarding `CC(=O)NCCSC(=O)[C@H](CC(C)C)NC(=O)[C@H](CCCN)NC(=O)[C@@H](NC(=O)[C@H](Cc1ccc(O)cc1)NC(=O)[C@H](CCC(N)=O)NC(=O)[C@H](CC(N)=O)NC(=O)CNC(=O)[C@H](Cc1ccccc1)NC(=O)[C@@H]1CCCN1C(=O)[C@H](N)Cc1ccccc1)C(C)C`, the k cat in assay [1] is 0.133 s⁻¹. In assay [2], the Ratio amounted to 0.36.

On to `CC(=O)NCCSC(=O)[C@H](CC(C)C)NC(=O)[C@H](CCCN)NC(=O)[C@@H](NC(=O)[C@H](Cc1ccc(O)cc1)NC(=O)[C@H](CCC(N)=O)NC(=O)[C@H](CC(N)=O)NC(=O)[C@@H](Cc1ccccc1)NC(=O)[C@H](Cc1ccccc1)NC(=O)[C@H](CC(=O)O)NC(=O)[C@H](N)Cc1ccccc1)C(C)C`, for which, in assay [1], the k cat was 0.167 s⁻¹. The Ratio in assay [2] amounted to 0.11.

Turning to `CC(=O)NCCSC(=O)[C@H](CC(C)C)NC(=O)[C@H](CCCN)NC(=O)[C@@H](NC(=O)[C@H](Cc1ccc(O)cc1)NC(=O)[C@H](CCC(N)=O)NC(=O)[C@H](CC(N)=O)NC(=O)[C@H](CS)NC(=O)[C@H](Cc1ccccc1)NC(=O)[C@@H]1CCCN1C(=O)[C@H](N)Cc1ccccc1)C(C)C`, the k cat in assay [1] was 0.11 s⁻¹. Also, in assay [2], the Ratio was 0.25.

Regarding `CC(=O)NCCSC(=O)[C@H](CC(C)C)NC(=O)[C@H](CCCN)NC(=O)[C@@H](NC(=O)[C@H](Cc1ccc(O)cc1)NC(=O)[C@H](CCC(N)=O)NC(=O)[C@H](CC(N)=O)NC(=O)[C@@H](Cc1ccccc1)NC(=O)[C@H](Cc1ccccc1)NC(=O)[C@@H]1CCCN1C(=O)[C@H](N)Cc1ccccc1)C(C)C` (stereo in doubt; form 2), the k cat in assay [1] is 0.55 s⁻¹. The Ratio in assay [2] was 2.65.

As to `CC(=O)NCCSC(=O)[C@H](CC(C)C)NC(=O)[C@H](CCCN)NC(=O)[C@@H](NC(=O)[C@H](Cc1ccc(O)cc1)NC(=O)[C@H](CCC(N)=O)NC(=O)[C@H](CC(N)=O)NC(=O)[C@H](Cc1c[nH]cn1)NC(=O)[C@H](Cc1ccccc1)NC(=O)[C@@H]1CCCN1C(=O)[C@H](N)Cc1ccccc1)C(C)C`, in assay [1], the k cat came out at 0.2 s⁻¹. In assay [2], the Ratio was determined as 0.15.

Turning to `CC(=O)NCCSC(=O)[C@H](CC(C)C)NC(=O)[C@H](CCCN)NC(=O)[C@@H](NC(=O)[C@H](Cc1ccc(O)cc1)NC(=O)[C@H](CCC(N)=O)NC(=O)[C@H](CC(N)=O)NC(=O)[C@H](Cc1ccc(O)cc1)NC(=O)[C@H](Cc1ccccc1)NC(=O)[C@@H]1CCCN1C(=O)[C@H](N)Cc1ccccc1)C(C)C`, in assay [1], the k cat is 0.183 s⁻¹. Further, the Ratio in assay [2] was 0.17.

For `CC(=O)NCCSC(=O)[C@H](CC(C)C)NC(=O)[C@H](CCCN)NC(=O)[C@@H](NC(=O)[C@H](CC(N)=O)NC(=O)[C@H](CCC(N)=O)NC(=O)[C@H](CC(N)=O)NC(=O)[C@@H](Cc1ccccc1)NC(=O)[C@H](Cc1ccccc1)NC(=O)[C@@H]1CCCN1C(=O)[C@H](N)Cc1ccccc1)C(C)C`, the k cat in assay [1] came out at 0.333 s⁻¹. In addition, the Ratio in assay [2] stood at 2.63.

As to `CC[C@@H](C)[C@H](NC(=O)[C@H](CC(N)=O)NC(=O)[C@@H](Cc1ccccc1)NC(=O)[C@H](Cc1ccccc1)NC(=O)[C@@H]1CCCN1C(=O)[C@H](N)Cc1ccccc1)C(=O)N[C@@H](Cc1ccc(O)cc1)C(=O)N[C@H](C(=O)N[C@@H](CCCN)C(=O)N[C@@H](CC(C)C)C(=O)SCCNC(C)=O)C(C)C`, in assay [1], the k cat was 0.123 s⁻¹. Also, in assay [2], the Ratio came to 0.09.

Take `CC(=O)NCCSC(=O)[C@H](CC(C)C)NC(=O)[C@H](CCCN)NC(=O)[C@@H](NC(=O)[C@H](Cc1ccc(O)cc1)NC(=O)[C@H](CCC(N)=O)NC(=O)[C@H](CC(N)=O)NC(=O)[C@H](CC(N)=O)NC(=O)[C@H](Cc1ccccc1)NC(=O)[C@@H]1CCCN1C(=O)[C@H](N)Cc1ccccc1)C(C)C`: in assay [1], the k cat came to 0.133 s⁻¹. Further, the Ratio in assay [2] amounted to 0.42.

For `CC(=O)NCCSC(=O)[C@H](CC(C)C)NC(=O)[C@H](CCCN)NC(=O)[C@@H](NC(=O)[C@H](Cc1ccc(O)cc1)NC(=O)[C@H](CCC(N)=O)NC(=O)[C@H](CC(N)=O)NC(=O)[C@H](CO)NC(=O)[C@H](Cc1ccccc1)NC(=O)[C@@H]1CCCN1C(=O)[C@H](N)Cc1ccccc1)C(C)C`, in assay [1], the k cat was found to be 0.13 s⁻¹. Further, in assay [2], the Ratio amounted to 0.57.

`CC(=O)NCCSC(=O)[C@H](CC(C)C)NC(=O)[C@H](CCCN)NC(=O)[C@H](CC(N)=O)NC(=O)[C@H](Cc1ccc(O)cc1)NC(=O)[C@H](CCC(N)=O)NC(=O)[C@H](CC(N)=O)NC(=O)[C@@H](Cc1ccccc1)NC(=O)[C@H](Cc1ccccc1)NC(=O)[C@@H]1CCCN1C(=O)[C@H](N)Cc1ccccc1`: the k cat in assay [1] amounted to 0.2 s⁻¹. In addition, the Ratio in assay [2] was found to be 0.22.

For `CC(=O)NCCSC(=O)[C@H](CC(C)C)NC(=O)[C@H](CCCN)NC(=O)[C@@H](NC(=O)[C@H](Cc1ccc(O)cc1)NC(=O)[C@H](CCC(N)=O)NC(=O)[C@H](CC(N)=O)NC(=O)[C@H](CCCN=C(N)N)NC(=O)[C@H](Cc1ccccc1)NC(=O)[C@@H]1CCCN1C(=O)[C@H](N)Cc1ccccc1)C(C)C`, the k cat in assay [1] turned out to be 0.2 s⁻¹. In addition, the Ratio in assay [2] was determined as 0.51.

`CC(=O)NCCSC(=O)[C@H](CC(C)C)NC(=O)[C@H](CCCN)NC(=O)[C@@H](NC(=O)[C@H](Cc1ccc(O)cc1)NC(=O)[C@H](CCC(N)=O)NC(=O)[C@H](CC(C)C)NC(=O)[C@@H](Cc1ccccc1)NC(=O)[C@H](Cc1ccccc1)NC(=O)[C@@H]1CCCN1C(=O)[C@H](N)Cc1ccccc1)C(C)C`: the k cat in assay [1] was 0.167 s⁻¹. Further, the Ratio in assay [2] amounted to 0.23.

Consider `CC(=O)NCCSC(=O)[C@H](CC(C)C)NC(=O)[C@H](CCCN)NC(=O)[C@@H](NC(=O)[C@H](Cc1ccc(O)cc1)NC(=O)[C@H](CCC(N)=O)NC(=O)[C@H](CC(N)=O)NC(=O)[C@H](Cc1c[nH]c2ccccc12)NC(=O)[C@H](Cc1ccccc1)NC(=O)[C@@H]1CCCN1C(=O)[C@H](N)Cc1ccccc1)C(C)C`, for which the k cat in assay [1] came to 0.12 s⁻¹. For the same compound, in assay [2], the Ratio turned out to be 0.95.

In the case of `CSCC[C@H](NC(=O)[C@H](Cc1ccccc1)NC(=O)[C@@H]1CCCN1C(=O)[C@H](N)Cc1ccccc1)C(=O)N[C@@H](CC(N)=O)C(=O)N[C@@H](CCC(N)=O)C(=O)N[C@@H](Cc1ccc(O)cc1)C(=O)N[C@H](C(=O)N[C@@H](CCCN)C(=O)N[C@@H](CC(C)C)C(=O)SCCNC(C)=O)C(C)C`, the k cat in assay [1] was 0.267 s⁻¹. Also, the Ratio in assay [2] is 0.8.

In the case of `CC(=O)NCCSC(=O)[C@H](CC(C)C)NC(=O)[C@H](CCCN)NC(=O)[C@H](CCC(N)=O)NC(=O)[C@H](Cc1ccc(O)cc1)NC(=O)[C@H](CCC(N)=O)NC(=O)[C@H](CC(N)=O)NC(=O)[C@@H](Cc1ccccc1)NC(=O)[C@H](Cc1ccccc1)NC(=O)[C@@H]1CCCN1C(=O)[C@H](N)Cc1ccccc1`, in assay [1], the k cat amounted to 0.233 s⁻¹. Moreover, the Ratio in assay [2] came to 0.22.

The values above are taken from ChEMBL document CHEMBL1135258, “Substrate spectrum of tyrocidine thioesterase probed with randomized peptide N-acetylcysteamine thioesters” (Bioorg Med Chem Lett, 2002).
